This passage reports Ki and IC50 results from ChEMBL document CHEMBL5335817, “Discovery and optimization of (2-naphthylthio)acetic acid derivative as selective Bfl-1 inhibitor” (Bioorg Med Chem Lett, 2024).

In general, pKi refers to −log10 of the Ki, conventionally taken in molar units. Broadly, the pIC50 is the IC50 on a negative log10 scale, so that one unit is a factor of ten. A high value points to a low IC50.

SMILES strings stand for the structures. pIC50, pKi: −log10 of the molar value. A value given as a limit tells only on which side of the number the result lay.

Experiment [1] addresses T1, Induced myeloid leukemia cell differentiation protein Mcl-1 (Homo sapiens, UniProt Q07820).
Description: Inhibition of Mcl-1 (unknown origin) assessed as inhibition constant
Experiment [2] addresses T2, Bcl-2-related protein A1 (Homo sapiens, UniProt Q16548).
T2 sequence (Q16548 whole entry): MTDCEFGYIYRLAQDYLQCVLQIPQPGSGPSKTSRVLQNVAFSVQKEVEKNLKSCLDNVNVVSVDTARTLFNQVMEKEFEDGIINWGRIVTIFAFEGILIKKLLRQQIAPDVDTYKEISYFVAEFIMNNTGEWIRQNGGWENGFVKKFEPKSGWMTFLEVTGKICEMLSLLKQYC
In words: Inhibition of Bfl-1 (unknown origin) assessed as inhibition constant.

In experiment [3] the target is T2, Bcl-2-related protein A1.
Description: Inhibition of recombinant Bfl-1 (1-152) (unknown origin) by TR-FRET assay
A further experiment concerns the target T3, Bcl-2-like protein 2 (Homo sapiens, UniProt Q92843).
T3 sequence (Q92843 whole entry): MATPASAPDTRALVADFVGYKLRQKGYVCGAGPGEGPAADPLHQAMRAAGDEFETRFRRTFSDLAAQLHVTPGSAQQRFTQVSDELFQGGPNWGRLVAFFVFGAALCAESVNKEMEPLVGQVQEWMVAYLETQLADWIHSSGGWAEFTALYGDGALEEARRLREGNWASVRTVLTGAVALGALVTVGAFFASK
As to the kind of experiment: Inhibition of GST fused Bcl-w (unknown origin) incubated for 5 min by TR-FRET assay.

The target in experiment [4] is Apoptosis regulator Bcl-2 (Homo sapiens, UniProt P10415). In words: Inhibition of GST fused Bcl-2 (unknown origin) incubated for 5 min by TR-FRET assay. Background: Time-resolved FRET reads energy transfer from a long-lived donor to a nearby acceptor.
Chain of Apoptosis regulator Bcl-2 (P10415 whole entry, the tested form may be a part): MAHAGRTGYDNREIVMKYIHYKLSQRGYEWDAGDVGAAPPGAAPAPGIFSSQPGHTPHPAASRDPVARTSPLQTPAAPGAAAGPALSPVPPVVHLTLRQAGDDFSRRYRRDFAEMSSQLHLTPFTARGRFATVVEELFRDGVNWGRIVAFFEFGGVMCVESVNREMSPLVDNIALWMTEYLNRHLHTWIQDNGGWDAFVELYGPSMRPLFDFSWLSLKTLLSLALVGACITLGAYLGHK
Experiment [5] addresses T1, Induced myeloid leukemia cell differentiation protein Mcl-1. As to the kind of experiment: Inhibition of GST fused Mcl-1 (unknown origin) incubated for 5 min by TR-FRET assay.
The next experiment concerns the target Bcl-2-like protein 1 (Homo sapiens, UniProt Q07817). As to the kind of experiment: Inhibition of GST fused Bcl-xL (unknown origin) incubated for 5 min by TR-FRET assay.
Experiment [6] concerns the target T2, Bcl-2-related protein A1. As to the kind of experiment: Inhibition of GST-tagged Bfl-1 (unknown origin) incubated for 60 min by TR-FRET assay.
Experiment [7] concerns the target T2, Bcl-2-related protein A1. In words: Inhibition of Bfl-1 (unknown origin) incubated for 30 min by fluorescence polarization assay.

T1 sequence (Q07820 whole entry): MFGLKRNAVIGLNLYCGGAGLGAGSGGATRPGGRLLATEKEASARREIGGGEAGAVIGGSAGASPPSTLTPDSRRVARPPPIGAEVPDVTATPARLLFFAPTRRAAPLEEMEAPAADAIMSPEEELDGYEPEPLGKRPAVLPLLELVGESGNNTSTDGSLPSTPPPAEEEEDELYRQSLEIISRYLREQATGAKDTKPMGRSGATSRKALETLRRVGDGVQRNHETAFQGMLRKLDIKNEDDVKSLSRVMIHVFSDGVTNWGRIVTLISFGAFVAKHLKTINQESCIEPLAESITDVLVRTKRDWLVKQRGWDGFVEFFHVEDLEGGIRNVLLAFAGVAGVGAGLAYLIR
Chain of Bcl-2-like protein 1 (Q07817 whole entry, the tested form may be a part): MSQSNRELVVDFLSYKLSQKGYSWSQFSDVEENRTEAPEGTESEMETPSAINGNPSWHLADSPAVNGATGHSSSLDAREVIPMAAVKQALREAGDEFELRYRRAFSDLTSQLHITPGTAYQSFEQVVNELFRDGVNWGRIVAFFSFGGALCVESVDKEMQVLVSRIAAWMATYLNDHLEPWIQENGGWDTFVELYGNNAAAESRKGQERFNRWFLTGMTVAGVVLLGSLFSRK

For the compound `O=C(O)CSc1cc(NS(=O)(=O)c2ccc(Br)cc2)c2ccccc2c1O`, the figures for the pKi (in experiment [1]; on Bcl-2-related protein A1 [2]) were 5.72 and 5.50, respectively. Moreover, on Bcl-2-related protein A1 [3], the pIC50 was 5.08. In the case of `CCOC(=O)CS(=O)(=O)c1nc(-c2ccc(F)cc2)cc(C(F)(F)F)n1`, the pIC50 (at Bcl-2-like protein 2; in experiment [4]; in [5]; against Bcl-2-like protein 1) was less than 4.00 each time. With `O=C(O)CSc1cc(NS(=O)(=O)c2cccs2)c2ccccc2c1O`, on Bcl-2-related protein A1 [3], the pIC50 is 5.34. Turning to `O=C(O)CSc1cc(NS(=O)(=O)c2ccc(-c3ccccc3)cc2)c2ccccc2c1O`, the figures for the pKi (in experiment [1]; on Bcl-2-related protein A1 [2]) were 5.33 and 5.66, respectively. As for `COc1ccc(C(c2c(-c3ccccc3)n(O)c3ccccc23)N2CCN(C)CC2)cc1` (stereo unspecified), the pIC50 against Bcl-2-related protein A1 [6] is 5.85; against Bcl-2-related protein A1 [7] it was 6.10. With `COc1ccc(S(=O)(=O)Nc2cc(SCC(=O)O)c(OC)c3ccccc23)cc1`, the pKi at Bcl-2-related protein A1 [2] is less than 4.30. Still for that read-out and setting: the result for `COC(=O)CSc1cc(NS(=O)(=O)c2ccc(-c3ccccc3)cc2)c2ccccc2c1OC` reads less than 4.30; that for `COc1c(SCC(=O)O)cc(NS(=O)(=O)c2ccc(C)cc2)c2ccccc12`, less than 4.30. On Bcl-2-related protein A1 [3], `CC(C)=CCC[C@]1(C)C=Cc2c(O)c3c(c(CC=C(C)C)c2O1)O[C@]12C(=C[C@@H]4C[C@H]1C(C)(C)O[C@@]2(C/C=C(/C)C(=O)O)C4=O)C3=O` [GAMBOGIC ACID] showed a pIC50 of 6.75.
